One series concerns human PBMCs. As to the kind of experiment: Cytokine production by human PBMCs treated with ODNs, MagPix Multi-Plex. In kind it is cell-based. The following applies: human PBMC, 24 hrs. The protocol: PBMC from 3 donors were isolated from Buffy Coat (Blood Center of NY). The cells were washed with PBS and re-suspended in RPMI-1640 Media with 5% Human AB Serum, 1% Pen/Strep and 2 mM L-glutamine. The cells were then plated in 96-well plates at 250,000 cells/well. […] After 24 hrs, the supernatant was harvested and tested for cytokine production using MagPix Multi-Plex Technology. The following cytokines were tested: IL-6, IL-10, IL-12p40, IFN-α, IFN-γ, IP-10, IL-1β and TNF-α.

For series [1], the system named is canonical NF-κB promoter reporter. Nature of the series: Mouse Raw Blue Reporter Cells, SEAP reporter driven by canonical NF-κB promoter (FIG. 11). The format is cell-based. As to conditions: mouse macrophages, 24 hrs; for activation of canonical NF-κB reporter: SEAP, COMPOUND (I) up to 10 μM. Here is the method:
Mouse Raw Blue Reporter Cells (Invivogen), containing a secreted embryonic alkaline phosphatase (SEAP) reporter gene driven by canonical NF-κB promoter, were plated in 96-well plates at 50,000 cells/well in DMEM Media supplemented with 10% FBS, 2 mM L-glutamine, 1% Pen/Strep, […] Normacin. […] The supernatant was harvested and tested for SEAP production by measuring OD at 630 nm.

The test system of series [2] is human pDCs. As to the kind of experiment: Surface ICOS-L and PD-L1 expression in CCR6+CD123+ human pDCs by FACS. The following applies: for increase of COMPOUND (I) induced ICOS-L expression by HCQ: primary human pDCs. The format is cell-based. Here is the method:
To evaluate surface ICOS-L, PD-L1 expression in the CCR6+CD123+ pDC cell subsets, PBMCs were incubated on ice in the presence of Fc-Block (BD Pharmingen) for 20 minutes, washed, and incubated with antibodies specific for surface molecules or isotype-matched control mAbs. APC-labeled anti-human ICOS-L mAb were purchased from BioLegend, PECY-7-labeled anti-human CCR6 mAb, FITC-labeled anti-human PD-L1 mAb and PerCP-Cy5.5 labeled anti-human CD123 mAb were purchased from BD Biosciences. The stained cells were then subjected to FACS (FACSCanto, BD Biosciences) using FACSDiva software. FACS analysis was performed using FlowJo software. Single, viable cells in the CCR6+CD123+ pDC gates were analyzed. The flow cytometric results are expressed as the percentage and MFI of ICOSL-, or PD-L1-expressing cells in each gate.
pDCs were isolated and ICOS-L expression was analyzed as described in Example 2.
On the technique in general: In flow cytometry, cells or beads pass a laser one at a time.

Another series deals with T1, TLR9 (Homo sapiens, UniProt Q9NR96).
T1 construct: expressed in transfected cells; host or cells: TLR9 expressing HEK293 reporter cells with a human NF-κB reporter construct
T1 sequence (Q9NR96 26-1032): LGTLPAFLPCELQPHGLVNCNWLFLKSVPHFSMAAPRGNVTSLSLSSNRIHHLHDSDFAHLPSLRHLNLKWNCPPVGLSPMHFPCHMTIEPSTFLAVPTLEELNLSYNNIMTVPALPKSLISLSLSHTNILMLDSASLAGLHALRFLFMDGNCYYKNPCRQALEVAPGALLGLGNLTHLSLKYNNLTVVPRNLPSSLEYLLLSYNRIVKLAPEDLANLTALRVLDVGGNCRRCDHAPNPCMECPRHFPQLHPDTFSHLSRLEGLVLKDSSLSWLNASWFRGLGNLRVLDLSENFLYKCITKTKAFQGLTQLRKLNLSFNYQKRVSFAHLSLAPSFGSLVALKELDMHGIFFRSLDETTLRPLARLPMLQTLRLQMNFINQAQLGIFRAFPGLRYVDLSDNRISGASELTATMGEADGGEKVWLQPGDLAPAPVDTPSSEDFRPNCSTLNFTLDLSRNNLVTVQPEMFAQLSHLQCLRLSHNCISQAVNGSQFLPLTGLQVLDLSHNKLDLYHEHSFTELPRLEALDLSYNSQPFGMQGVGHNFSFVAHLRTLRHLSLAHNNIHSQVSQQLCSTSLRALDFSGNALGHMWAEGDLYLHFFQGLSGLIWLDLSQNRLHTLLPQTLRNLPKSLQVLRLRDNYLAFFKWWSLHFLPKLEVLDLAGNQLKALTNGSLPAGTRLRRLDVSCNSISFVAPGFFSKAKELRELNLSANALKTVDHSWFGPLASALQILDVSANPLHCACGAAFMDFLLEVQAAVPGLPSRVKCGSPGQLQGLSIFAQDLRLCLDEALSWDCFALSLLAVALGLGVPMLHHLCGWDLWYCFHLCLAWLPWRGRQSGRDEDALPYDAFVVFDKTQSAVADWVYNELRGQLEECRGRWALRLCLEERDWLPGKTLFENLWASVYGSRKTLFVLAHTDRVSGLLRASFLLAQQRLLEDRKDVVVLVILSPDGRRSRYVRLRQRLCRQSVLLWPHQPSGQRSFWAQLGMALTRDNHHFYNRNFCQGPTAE
Nature of the series: NF-κB reporter gene in recombinant TLR9-expressing HEK293 cells. The format is cell-based. As to conditions: TLR9-expressing HEK293 cells, FIG. 16A. The protocol:
FIGS. 16A-B show results of experiments in which recombinant TLR-expressing HEK293 cells carrying an NF-κB reporter gene were incubated with COMPOUND(I), ODN150, ODN2006, or ODN7040 for 48 hours at the indicated concentrations.
A general note: Reporter assays use an easily measured gene product as a stand-in for the process of interest.

The subject of the next series is mouse macrophages. As to the kind of experiment: TNFα and IL-10 production in mouse macrophages (Raw Blue cells), MagPix. In kind it is cell-based. The following applies: 24 hrs. Here is the method:
Mouse Raw Blue Reporter Cells (Invivogen) were plated in 96-well plates at 50,000 cells/well in DMEM Media supplemented with 10% FBS, 2 mM L-glutamine, 1% Pen/Strep, […] Normacin. […] The supernatant was harvested and tested for TNFα and IL-10 production using MagPix Multi-Plex technology.

Series [3] deals with human pDCs. As to the kind of experiment: Intracellular IL-10, TGF-β1 and IDO expression in CCR6+CD123+ human pDCs by FACS. As to conditions: 24 hrs, FIG. 2A. In kind it is cell-based. An excerpt:
To evaluate intracellular IL-10, TGFβ 1 and IDO expression in human pDCs, the cells were first stained with PECY-7-labeled anti-human CCR6 mAb (BD Biosciences), PerCP-Cy5.5 labeled anti-human CD123 mAb (BD Biosciences). Stained cells were then fixed and permeabilized using a Cytofix/Cytoperm kit (BD Biosciences) according to the manufacturer's instructions and stained with PE-labeled anti-human IDO (Biolegend), APC-labeled anti-human IL-10 mAb and FITC-labeled anti-human TGF-β1 (BD Biosciences), or isotype-matched control mAbs. The stained cells were acquired by FACSCanto using the FACSDiva software. FACS analysis was performed using FlowJo software. Single, viable cells in the CCR6+CD123+ pDC gates were analyzed. The flow cytometric results are expressed as the percentage and MFI of IL-10-, TGF-β1- or IDO-expressing cells in each gate. Results are expressed as the mean±SEM of cells quantified.
IL10 was alternatively measured in cellular supernatants by ELISA using standard protocols.

In series [4] the test system is canonical NF-κB promoter reporter. As to the kind of experiment: Canonical NF-κB promoter reporter construct in RAW264.7 macrophage cells (FIG. 10). The following applies: 24 hrs. The format is cell-based, mouse. Here is the method:
Mouse RAW264.7 macrophage cells containing a reporter construct driven by a canonical NF-κB promoter were plated in 96-well plates at 50,000 cells/well. […] The supernatant was harvested and tested for optical density.

Oligonucleotides are written 5' to 3', each unit as a sugar letter and its base; * is a phosphorothioate linkage, no mark a phosphodiester; rarer units and linkages stand in square brackets, end groups in braces. Plain capitals give the bases only. d = 2'-deoxy (DNA); m = 2'-O-methyl

Results on 5 compounds are retold here after US20180289692A1, “TLR MODULATORS AND METHODS OF USE” (CELGENE CORPORATION, priority 2015, published 2018).

In the series with human PBMCs (high-dose ODN 10 μM), “ODN150C: 5′-G*G*A*ACAGTTAGTCCATa*G*G*C-3′, PO except * = PS; control lacking CG-dinucleotide sequences (DNA GGAACAGTTAGTCCATGGC; listed as DNA, chemistry not fully specified)” displayed an IFN-γ of 0.1 pg/mL, an IL-1β of 0.3 pg/mL, an IL-6 of 1.4 fold change and an IL-10 of 1 fold change. Besides, in the series with human PBMCs (high-dose ODN 10 μM), the IL-12p40 was found to be 0 pg/mL, the IP10 amounted to 1.5 fold change and the TNF-α stood at 1.4 fold change. In the series with human PBMCs (low-dose ODN 0.1 μM), this compound yielded an IFN-γ of 0.1 pg/mL, an IL-1β of 0.2 pg/mL, an IL-6 of 1.2 fold change and an IL-10 of 1 fold change. In addition, in the series with human PBMCs (low-dose ODN 0.1 μM), the IL-12p40 came to 0 pg/mL, the IP10 turned out to be 1 fold change and the TNF-α worked out at 1.2 fold change. Moreover, in series [1], the “activation of canonical NF-κB reporter” value was “did not activate”.
`CCN(CCO)CCCC(C)Nc1ccnc2cc(Cl)ccc12` (stereo not shown) [HCQ, hydroxychloroquine]: the “increase of COMPOUND (I) induced ICOS-L expression by HCQ” value with human pDCs [2] (HCQ 10 μM + COMPOUND (I) 1 μM, FIG. 6A) came to 7.3 fold; with human pDCs [2] (HCQ 10 μM + COMPOUND (I) 1 μM, FIG. 6B), 2.0 fold; with human pDCs [2] (HCQ 10 μM + COMPOUND (I) 10 μM, FIG. 6A), 7.1 fold; with human pDCs [2] (HCQ 10 μM + COMPOUND (I) 10 μM, FIG. 6B), 1.9 fold. Besides, the “ICOS-L expression, agent alone” value in the series on human pDCs [2] (human pDCs, COMPOUND (I) 1 μM and 10 μM by itself, HCQ 10 μM alone) is “did not induce measurable levels”. Also, at TLR9, the “effect on COMPOUND (I) activity on NF-κB reporter gene” value is listed as “inhibited”.
In the series on human PBMCs (high-dose ODN 10 μM), “ODN7040C: 5′-CTGCCAAGTTCACCTGCA*C*C*-3′, PO; * = 2′OMe; control lacking CG-dinucleotide sequences (DNA dCdTdGdCdCdAdAdGdTdTdCdAdCdCdTdGdCmAmCmC)” registered an IFN-γ of 0.2 pg/mL, an IL-1β of 0.5 pg/mL, an IL-6 of 2.1 fold change and an IL-10 of 1 fold change. For the same compound, in the series on human PBMCs (high-dose ODN 10 μM), the IL-12p40 stood at 0.1 pg/mL, the IP10 is on record as 1.4 fold change and the TNF-α is 1.4 fold change. In the series with human PBMCs (low-dose ODN 0.1 μM), this compound gave an IFN-γ of 0.2 pg/mL, an IL-1β of 0.6 pg/mL, an IL-6 of 1.2 fold change and an IL-10 of 1 fold change. In the series on human PBMCs (low-dose ODN 0.1 μM), the IL-12p40 came to 0.1 pg/mL, the IP10 stood at 1.1 fold change and the TNF-α is 1.1 fold change. Also, in series [1], the “activation of canonical NF-κB reporter” value is recorded as “did not activate”.
ODN1826: in series [1], the “concentration from which the NF-κB reporter is activated” value is no more than 0.01 µM and the “activation of canonical NF-κB reporter” value is “potent activator”. In the series on mouse macrophages (FIG. 12, COMPOUND (I) up to 10 μM), the TNFα protein expression result was “induce”. Also, the IL-10 protein expression entry in the series on mouse macrophages (FIG. 13, COMPOUND (I) up to 10 μM) is recorded as “induce”.
Turning to “ODN302: 5′-GTCGCTCTTCTCCTCCGCCAG-3′, fully PS; scrambled (non-SMAD7 AON) control sequence with two CG sequences (DNA dG*dT*dC*dG*dC*dT*dC*dT*dT*dC*dT*dC*dC*dT*dC*dC*dG*dC*dC*dA*dG)”, in the series with human pDCs [3], the TGF-β1 protein induction result is “can induce”. Further, the PD-L1 protein induction result with human pDCs [2] (human pDCs, 24 hrs, FIG. 2B) was “can induce”. In the series on human PBMCs (high-dose ODN 10 μM), this compound showed an IFN-γ of 9.7 pg/mL, an IL-1β of 3.9 pg/mL, an IL-6 of 41 fold change and an IL-10 of 1.5 fold change. Further, in the series with human PBMCs (high-dose ODN 10 μM), the IL-12p40 is 5.2 pg/mL, the IP10 is listed as 4.4 fold change and the TNF-α is reported as 9.3 fold change. In the series on human PBMCs (low-dose ODN 0.1 μM), this compound returned an IFN-γ of 1.5 pg/mL, an IL-1β of 0.2 pg/mL, an IL-6 of 19 fold change and an IL-10 of 1.5 fold change. Also, in the series with human PBMCs (low-dose ODN 0.1 μM), the IL-12p40 is 0.7 pg/mL, the IP10 is given as 13.9 fold change and the TNF-α was 2.4 fold change. In addition, in series [4] (0.1-100 μM), the “activation of the NF-κB construct” value is recorded as “Moderate activation”. Moreover, in series [4], the “ODN concentration at which activation of the NF-κB construct was observed” value was “about 1 μM”.
